Tests used:
Assay type in all cases: in vivo, human
[1] = test system: Alzheimer's disease; assay: Oral tranilast in a patient with Alzheimer's disease (Case 5), testing methods for dementia HDS-R and MMSE
Method: (§1) 2. Confirmation that the agent for suppressing or inhibiting an amyloid fibril formation of the present invention has a therapeutic effect against cerebral amyloidosis. Because it was shown that tranilast has the effect of suppressing amyloid fibril formation in the skin, whether dementia and Alzheimer's disease arising from amyloid fibril deposition in the brain could be ameliorated was studied. A patient with Alzheimer's disease (person) was administered orally with a 100 mg capsule of tranilast (brand name: Rizaben, Kissei Pharmaceutical Co., Ltd.) three times a day. About 5 months after the start of administration of tranilast on Oct.

[2] = test system: dementia; assay: Oral tranilast in a patient with dementia (Case 4), testing methods for dementia HDS-R and MMSE
Method: as §1, with “dementia (patient two)” for “Alzheimer's disease (person)”, “day.” for “day. About 5 months after the start of administration of tranilast on Oct.”

[3] = test system: cutaneous amyloidosis; assay: Oral tranilast treatment of patients with cutaneous amyloidosis / cutaneous lichen amyloidosis (Cases 1-3), clinical observation of skin symptoms
Description: 1. Confirmation that the agent for suppressing or inhibiting an amyloid fibril formation of the present invention has a therapeutic effect against cutaneous amyloidosis.
patient one observed with symptoms of cutaneous amyloidosis specific pigment-associating invasion and itch in the upper back had been treated without tranilast for an initial duration of 4 years, however, no therapeutic effect was observed. Therefore, the treatment shifted to the use of tranilast. The above-mentioned patient was administered orally with a 100 mg capsule of tranilast (brand name: Rizaben, Kissei Pharmaceutical Co., Ltd.) three times a day. […] Worsening or relapse of rash was not observed at least 3 years afterwards.
Therefore, the treatment shifted to the use of tranilast. The above-mentioned patient was administered orally with a 100 mg capsule of tranilast (brand name: Rizaben, Kissei Pharmaceutical Co., Ltd.) three times a day. From day 16 (Jul. 16, 2014) (see FIG. 1B) after the start of oral administration on Jun. […] The degree of amelioration of rash increased day by day (see FIGS. 1C to 1E).
A patient observed with chronic eczema with rash along with strong itch in the upper back for several years started the treatment with tranilast. The patient was administered orally with a 100 mg capsule of tranilast (brand name: Rizaben, Kissei Pharmaceutical Co., Ltd.) three times a day. When the oral administration started on Jul. 29, 2014, amyloid deposited brown papule was densely lichenified (see FIG. 2A).

[4] = 1 year and 4 months after start of administration (December 2013)
[5] = Case 1, 100 mg capsule orally three times a day, within another 1 month (about 2 months after start)

Structure (SMILES): COc1ccc(/C=C/C(=O)Nc2ccccc2C(=O)O)cc1OC [tranilast, N-(3,4-dimethoxycinnamoyl)anthranilic acid]
- effect on the symptoms of Alzheimer's type dementia by HDS-R and MMSE ([1]; 100 mg capsule orally three times a day, about 5 months after start): clear ameliorating effect
- HDS-R Value ([1]; about 5 months after start (Mar. 19, 2015), value at start of administration 9): 12
- MMSE Value ([1]; about 5 months after start (Mar. 19, 2015), value at start of administration 14): 22
- effect by two testing methods for dementia (HDS-R and MMSE) ([2]; 100 mg capsule orally three times a day, 1 year and 4 months after start): clear ameliorating effect
- HDS-R Value [2, 4]: 20
- MMSE Value [2, 4]: 25
- HDS-R Value ([2]; 5 months after start of administration (January 2013), 23 at 1 year and 5 months before start): 15
- MMSE Value ([2]; 5 months after start of administration (January 2013), 27 at 1 year and 5 months before, 28 at 3 years and 10 months before): 22
- pigmentation ([3]; Case 1, upper back, 100 mg capsule orally three times a day, about 1 month after start of oral administration): started to thin
- itch [3, 5]: reduced
- rash [3, 5]: largely ameliorated
- worsening or relapse of rash ([3]; Case 1, at least 3 years afterwards): not observed
- amyloid deposited brown papule ([3]; Case 2, 100 mg capsule orally three times a day, day 151 after start of oral administration): almost disappeared
- amyloid deposited brown papule ([3]; Case 2, 100 mg capsule orally three times a day, from day 16 after start of oral administration): thinned, decreased in size, and ameliorated clearly
- condition (papule almost disappeared) maintained until ([3]; Case 2, day after start of oral administration): ≥ 238 days
- symptoms (densely lichenified amyloid deposited brown papule) ([3]; Case 3, upper back, 100 mg capsule orally three times a day, day 15 after start): improvement in the symptoms was observed
- symptoms (densely lichenified amyloid deposited brown papule) ([3]; Case 3, 100 mg capsule orally three times a day, day 29 after start): clear improvement in the symptoms was observed
- improved condition maintained until ([3]; Case 3, day after start of oral administration): ≥ 89 days

— US11723889B2, “Amyloid fiber formation limiter or inhibitor” (Omoidesouzou Co., Ltd., priority 2014, dated 2023)
